Results from ChEMBL document CHEMBL1201862, “PubChem BioAssay data set” (2004).
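The compound was tested at five concentrations on cells cultured in 96-well plates, with a 48-hour exposure period. Here, GI50 denotes the concentration required for 50% inhibition of growth.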 Calls of active or inactive are those of the source. No stated cut-off is given here; in the data, active = GI50 up to about 1.1 µM and inactive = higher.

How the values were obtained:
Test in all cases: NCI-60 cell line screen, 48 h
MDA-N = system: MDA-N
HL-60 = system: HL-60
MDA-MB-435 = system: MDA-MB-435
786-0 = system: 786-0
Malme-3M = system: Malme-3M
SF-268 = system: SF-268
T47D = system: T47D
TK-10 = system: TK-10
NCI-H460 = system: NCI-H460
HT-29 = system: HT-29
K562 = system: K562
RXF 393 = system: RXF 393
SR = system: SR
UACC-62 = system: UACC-62
SNB-19 = system: SNB-19
RPMI-8226 = system: RPMI-8226
CAKI-1 = system: CAKI-1
OVCAR-4 = system: OVCAR-4
CCRF-CEM = system: CCRF-CEM
NCI-H226 = system: NCI-H226

| Structure (SMILES) | GI50 (MDA-N) | GI50 (HL-60) | GI50 (MDA-MB-435) | GI50 (786-0) | GI50 (Malme-3M) | GI50 (SF-268) | GI50 (T47D) | GI50 (TK-10) | GI50 (NCI-H460) | GI50 (HT-29) | GI50 (K562) | GI50 (RXF 393) | GI50 (SR) | GI50 (UACC-62) | GI50 (SNB-19) | GI50 (RPMI-8226) | GI50 (CAKI-1) | GI50 (OVCAR-4) | GI50 (CCRF-CEM) | GI50 (NCI-H226) |
| --- | --- | --- | --- | --- | --- | --- | --- | --- | --- | --- | --- | --- | --- | --- | --- | --- | --- | --- | --- | --- |
| CN1CCc2cc3c(c4c2C1C(O)c1ccccc1-4)OCO3 (configuration not stated) | 5.08 µM (inactive) | 2.23 µM (inactive) | 6.12 µM (inactive) | 6.21 µM (inactive) | 8 µM (inactive) | 6.3 µM (inactive) | 13 µM (inactive) | 14.2 µM (inactive) | 3.33 µM (inactive) | 3.5 µM (inactive) | 4.57 µM (inactive) | 2.52 µM (inactive) | 4.6 µM (inactive) | 8.22 µM (inactive) | 10.6 µM (inactive) | 7.01 µM (inactive) | 3.75 µM (inactive) | 6.04 µM (inactive) | 2.41 µM (inactive) |  |
| Fc1ccc(Oc2nc3ccc(C(F)(F)F)cc3nc2-c2ccccc2)cc1 | 99.5 µM (inactive) | 87.3 µM (inactive) | 76.2 µM (inactive) | 61.7 µM (inactive) | 38 µM (inactive) | > 100 µM (inactive) | 99.3 µM (inactive) | 51.2 µM (inactive) | 66.2 µM (inactive) | 32.1 µM (inactive) | > 10 µM (inactive) | 67.5 µM (inactive) | 24.3 µM (inactive) | 39.8 µM (inactive) | 87.9 µM (inactive) |  | 27.9 µM (inactive) | 60.5 µM (inactive) | > 10 µM (inactive) |  |
| CCOC(=O)C1=c2[nH]c3cccc4cccc(c43)n2C=C(C(C)=O)C1CC(C)=O (configuration not stated) | > 100 µM (inactive) | 12.3 µM (inactive) | 52.6 µM (inactive) | 40.4 µM (inactive) |  |  | 34 µM (inactive) | > 100 µM (inactive) | > 100 µM (inactive) |  | > 100 µM (inactive) | 56.1 µM (inactive) | > 100 µM (inactive) | > 100 µM (inactive) | 55.2 µM (inactive) | > 100 µM (inactive) | 56.6 µM (inactive) | > 100 µM (inactive) | 19.9 µM (inactive) |  |
| CC[C@](O)(C(=O)O)c1cc2n(c(=O)c1CO)Cc1cc3ccccc3nc1-2 | 0.0373 µM (active) | 0.025 µM (active) | 0.0532 µM (active) | 0.00366 µM (active) | 0.0975 µM (active) |  | 0.0324 µM (active) | 0.282 µM (active) | 0.025 µM (active) | 0.0461 µM (active) |  | 0.0384 µM (active) | 0.01 µM (active) | 0.025 µM (active) | 0.025 µM (active) |  | 0.025 µM (active) | 0.214 µM (active) | 0.025 µM (active) |  |
| Cc1n[nH]c(=O)n1/N=C/c1ccc(F)cc1 | > 100 µM (inactive) |  | > 100 µM (inactive) | > 100 µM (inactive) |  | > 100 µM (inactive) | > 100 µM (inactive) |  | > 100 µM (inactive) |  | > 100 µM (inactive) | 40.6 µM (inactive) | > 100 µM (inactive) | > 100 µM (inactive) | > 100 µM (inactive) | > 100 µM (inactive) | > 100 µM (inactive) | > 100 µM (inactive) | > 100 µM (inactive) |  |
| CN(/N=C/c1ccc(C(=O)O)cc1)C1=NCCCCN1 | > 100 µM (inactive) | > 100 µM (inactive) | > 100 µM (inactive) | > 100 µM (inactive) | > 100 µM (inactive) | > 100 µM (inactive) | > 100 µM (inactive) |  | > 100 µM (inactive) | > 100 µM (inactive) | > 100 µM (inactive) |  | > 100 µM (inactive) | > 100 µM (inactive) | > 100 µM (inactive) | > 100 µM (inactive) | > 100 µM (inactive) | > 100 µM (inactive) | > 100 µM (inactive) | > 100 µM (inactive) |
